Measurements taken from patent EP4438596A1, “DIAMINOPYRIMIDINE DERIVATIVES AS HDAC AND DHFR DUAL-TARGETING INHIBITORS AND USE THEREOF IN PREVENTING AND TREATING MALARIA” (Université de Lille, priority 2023, dated 2024).
Where two headings read alike, the source gives them in different places. One block for each compound: values may come before it.

Assays:
[1] = tested on: P. falciparum 3D7-infected erythrocytes; experiment: Plasmodium falciparum growth inhibition assay (SYBR Green I, flow cytometry), drug-sensitive strain; type: cell-based; settings: Plasmodium falciparum, 3D7, Erythrocyte, 48 h incubation
Experimental: (§1) Plates were incubated under standard P. falciparum culture conditions for 48 h. […] Fixed parasitized red blood cells (RBC) were stored at 4 °C in the dark until flow cytometry analysis. Parasite growth was assessed by flow cytometry on a BD FACS Cantoll (BD Biosciences) or a Attune™ NxT Flow Cytometer (Invitrogen). Cell doublets were excluded from the analysis using a forward scatter (FSC)-width versus FSC-area dot plot. Infected and uninfected erythrocytes were gated on the basis of their FSC and side scatter (SSC) signals. Fluorescence analysis (Green fluorescence FITC) was performed using BD FACSDiva software (BD Biosciences) on a total of 200,000 acquired events. […] Fluorescence of non-infected RBC was adjusted to plot between 10° and 10^2. Results are expressed as the percentage of growth inhibition.
(§2) All IC50 values were calculated using log-linear interpolation (www.antimalarial-icestimator.net), with mean values (± SD) determined over at least two independent experiments.

HEK293 cells = experiment: Cytotoxicity on HEK293 cells (Alamar Blue); type: cell-based, Human; settings: ratio of the minimum inhibitory concentration of HEK293 cells (50 µM) to the IC50 of Pf3D7
Experimental: Cells were seeded out at 1.5 × 10^3 cells per well in a 96-well cell culture plate (TPP, Switzerland).
After 24 h, Alamar Blue reagent (Invitrogen, CA) was added according to the manufacturer's instructions and incubated again for 21 h before samples were analyzed.

[2] = tested on: multidrug-resistant P. falciparum line Dd2; experiment: Plasmodium falciparum growth inhibition assay (SYBR Green I, flow cytometry), multidrug-resistant line; type: cell-based; settings: line resistant to CQ, PYR and mefloquine, mean ± SD
Experimental: as §1, §2

[3] = tested on: P. berghei ANKA parasites; experiment: Peters 4-day suppressive test, oral efficacy in P. berghei-infected mice; type: in vivo, Plasmodium berghei; settings: for activity in vivo against Plasmodium berghei: Experiment 2 (Fig. 2), 10mg/kg orally twice a day on days 0,1,2,3; for activity in vivo against Plasmodium berghei / number of mice showing blood parasites / parasitemia (mean ± sd): Balb/C mice; for parasites in treated mice, follow-up: until the end of the experiments; for parasite clearance after oral administration: 10 mg/kg
Experimental: Compounds powder was dissolved in DMSO and sonicated for 10 min. Appropriate volume of 50%W/v HPβCD was added dropwise under gentle swirling. After 10 min sonication, DPBS was added dropwise under gentle swirling and the mixture was sonicated again for 10 min. After checking the pH (5.5 - 7), the solution was filtered (0.22µm) and conserved at room temperature for max 2 days. Final concentration of compounds was 2.5 mg/mL, 1 mg/mL or 0.1 mg/mL for mice treatment with 25 mg/kg, 10 mg/kg or 1mg/kg doses.
10 weeks-old Balb/C male mice were purchased from Janvier Labs.
P. berghei ANKA parasites stabilates conserved in liquid nitrogen were thawed and injected intraperitoneally (ip) into 2-3 mice (10^6 infected red blood cells (RBC) / mouse). When parasitemia reached 3-5%, mice were bled and groups of six BALB/c male mice were infected with 10^6 P. berghei ANKA parasites (day 0), and treated per os (p.o.) twice a day on days 0, 1, 2 and 3. […] On day 4 post infection (p.i.), the peripheral blood parasitemia of all mice was evaluated via microscopic examination of Giemsa-stained thin blood smears. Parasitemia was then followed for two weeks.

[4] = mean ± SD, n ≥ 2, read-out: Pf3D7 IC50
[5] = Plasmodium falciparum, DD2, 48 h, n ≥ 2, read-out: PfDd2 IC50
[6] = Experiment 3, 1 mg/kg p.o. twice a day on days 0-3, day 4 p.i.
[7] = Experiment 3, 1 mg/kg p.o. twice a day on days 0-3, day 5 p.i.
[8] = Experiment 3, 1 mg/kg p.o. twice a day on days 0-3, day 6 p.i.
[9] = Experiment 3, 1 mg/kg p.o. twice a day on days 0-3, day 7 p.i.
[10] = Experiment 3, 1 mg/kg p.o. twice a day on days 0-3, day 8 p.i.
[11] = Experiment 3, 1 mg/kg p.o. twice a day on days 0-3, day 10 p.i.
[12] = Experiments 1 and 2, 10 mg/kg p.o. twice a day on days 0-3, day 4 p.i.
[13] = Experiments 1 and 2, 10 mg/kg p.o. twice a day on days 0-3

IC50 [1, 4]: 11.4 ± 7.9 nM
Compound: CCc1nc(N)nc(N)c1OCCOc1ccccc1CCC(=O)NO.Cl [2·HCl, 3-(2-[2-(2,4-Diamino-6-ethylpyrimidin-5-yloxy)ethoxy]phenyl)-N-hydroxypropanamide hydrochloride]
Selectivity Index HEK293 / Pf3D7 (HEK293 cells): > 4.4E+06

IC50 [1, 4]: 0.845 ± 0.108 nM
Compound: CCc1nc(N)nc(N)c1OCCCOc1cccc(C(=O)NO)c1.Cl [8·HCl, 3-[3-(2,4-Diamino-6-ethylpyrimidin-5-yloxy)propoxy]-N-hydroxybenzamide hydrochloride]
IC50 [2, 5]: 138 nM
IC50 ([2]; 48 h, n ≥ 2, listed as 8, hydrochloride, read-out: PfDd2 IC50): 138 ± 25.4 nM
activity in vivo against Plasmodium berghei [3]: active in vivo
ranking of activity against P. berghei infection ([3]; Experiment 3, 1 mg/kg p.o. twice a day on days 0-3): most active
parasites in treated mice [3, 6]: undetectable
number of mice showing blood parasites [3, 6]: 0/6
parasitemia (mean ± sd) [3, 6]: 0%
number of mice showing blood parasites [3, 7]: 0/6
parasitemia (mean ± sd) [3, 7]: 0%
number of mice showing blood parasites [3, 8]: 2/6
parasitemia (mean ± sd) [3, 8]: 0,08 ± 0,13%
number of mice showing blood parasites [3, 9]: 2/6
parasitemia (mean ± sd) [3, 9]: 0,32 ± 0,49%
number of mice showing blood parasites [3, 10]: 3/6
parasitemia (mean ± sd) [3, 10]: 1,37 ± 2,07%
number of mice showing blood parasites [3, 11]: 4/6
parasitemia (mean ± sd) [3, 11]: 2,41 ± 2,84%
parasites in treated mice [3, 12]: undetectable
parasites in treated mice, follow-up [3, 13]: remained undetectable
parasite clearance after oral administration [3]: achieved parasite clearance

IC50 [1, 4]: 0.081 ± 0.043 nM
IC50 ([1]; read-out: IC50 (Pf3D7)): < 0.1 nM
Compound: CCc1nc(N)nc(N)c1OCCCOc1ccccc1/C=C/C(=O)NO.Cl [13·HCl, (E)-3-{2-[3-(2,4-Diamino-6-ethylpyrimidin-5-yloxy)propoxy]phenyl}-N-hydroxyacrylamide hydrochloride]
IC50 [2, 5]: 11.1 ± 7.2 nM
activity in vivo against Plasmodium berghei [3]: active in vivo
number of mice showing blood parasites [3, 6]: 2/6
parasitemia (mean ± sd) ([3]; Experiment 3, 1 mg/kg p.o. twice a day on days 0-3, day 4 p.i., hydrochloride, 1 mg/kg): 0,12 ± 0,18%
parasitemia (mean ± sd) ([3]; Experiment 3, 1 mg/kg p.o. twice a day on days 0-3, day 4 p.i., listed as 13, hydrochloride, 1 mg/kg): 0.12%
number of mice showing blood parasites [3, 7]: 3/6
parasitemia (mean ± sd) [3, 7]: 0,55 ± 0,83%
number of mice showing blood parasites [3, 8]: 4/6
parasitemia (mean ± sd) [3, 8]: 2,05 ± 2,37%
number of mice showing blood parasites [3, 9]: 5/6
parasitemia (mean ± sd) [3, 9]: 2,39 ± 2,22%
number of mice showing blood parasites [3, 10]: 5/6
parasitemia (mean ± sd) [3, 10]: 3,94 ± 3,06%
number of mice showing blood parasites [3, 11]: 5/5
parasitemia (mean ± sd) [3, 11]: 6,02 ± 2,66%
parasites in treated mice [3, 12]: undetectable
parasites in treated mice, follow-up [3, 13]: remained undetectable
parasite clearance after oral administration [3]: achieved parasite clearance

IC50 [1, 4]: 4.84 ± 1.05 nM
Compound: CCc1nc(N)nc(N)c1OCCCOc1cccc(C(=O)NOCc2ccccc2)c1 [Compound 12, N-(Benzyloxy)-3-[3-(2,4-diamino-6-ethylpyrimidin-5-yloxy)propoxy]benzamide]
Selectivity Index HEK293 / Pf3D7 (HEK293 cells): > 1.0E+07
